From ChEMBL document CHEMBL1144817, “Mirabalin, [corrected] an antitumor macrolide lactam from the marine sponge Siliquariaspongia mirabilis” (J Nat Prod, 2008)
Active and inactive are the calls of the source. No cut-off for these calls is given here.

Key:
Candida albicans = assay: Antimicrobial activity against Candida albicans; assay type: functional, organism-based
HCT-116 = assay: Antitumor activity against human HCT116 cells; assay type: functional, cell-based
[1] = Antiproliferative activity against green monkey kidney cells; assay type: cell-based; conditions: chlorocebus aethiops

## CO[C@@H]1[C@@H]2O[C@H](C[C@@H](O)[C@H](C)[C@@H](O)/C(C)=C/[C@H](C)[C@H](O)/C=C/CC(O)CC(C(NC(=O)CC(C)CCC(C)C(O)/C(C)=C/C(C)[C@@H](O)[C@H](NC(=O)/C=C/C(C)(C)C(=O)[C@@H](C)[C@@H](O)C(C)C)[C@@H](O)C(C)C)C(C)O)OC(=O)C(C(O)C(=O)O)NC(=O)/C=C/C=C/C=C/C=C/C=C/[C@H]2OC)C[C@@H]1C (stereo partly drawn) [MIRABILIN MACROLIDE LACTUM]
Candida albicans
  Activity: inactive
HCT-116
  IC50: 270 nM
[1]
  Activity: Not Active
